Earlier results as cited in US20060009468A1, “Method for treatment of cancer” (priority 2004, published 2006).

How the values were obtained:
MIA PaCa-2 cells = conditions: after 72 hrs of exposure
PANC-1 cells = conditions: after 72 hrs of exposure

For `N=C(N)NOCC[C@H](N)C(=O)O` [L-canavanine, L-Canavanine], the “increase of the percentage of cells in the radiosensitive G2/M phase of the cell cycle, compared to untreated cells” value (MIA PaCa-2 cells) is given as 4 fold and the “increase of the percentage of cells in the radiosensitive G2/M phase of the cell cycle, compared to untreated cells” value (PANC-1 cells) is given as 6 fold.
